Data on 18 compounds can be found in patent US11718628B2, “SREBP inhibitors comprising a 6-membered central ring” (Capulus Therapeutics, LLC, priority 2018, dated 2023).

Bounds are passed on as bounds.

This test relates to SREBP. Kind of test: Reporter screening assay (SRE-luciferase reporter construct). The class given is cell-based. As to conditions: Homo sapiens; SREBPv1 reporter cell line HepG2, 24 hours, 0.01 uM to 10 uM; read-out: Reporter Screening IC50 (nM) Activity Range. The method, then:
This assay was used to evaluate the effect on transcriptional activity SREBP of the compounds synthesized according to Examples 1-16, 20, and 22, using an SRE-luciferase reporter construct. On day 1, 10,000 cells were seeded in a 96 well (white) plate as per the plate map in Growth media without antibiotics. Cells were incubated at 37° C. for 8 hours. After 8 hours, cells were washed with DPBS for complete removal of FBS. DPBS was completely removed and Growth media was replaced with phenol free treatment medium (90 μl) with different FBS concentrations. The cells were then incubated at 37° C. for 24 hours with varying doses (0.01 uM to 10 uM) of compounds. Then a Luciferase assay was performed.
Reagents for performing Luciferase assay were stored at −20° C. To a tube of lyophilized assay substrate was added 1 mL Substrate Solvent and mixed well. The Substrate tube after reconstitution was covered with aluminum foil so as to keep it protected from light. The assay buffer was thawed to room temperature. To 20 mL Assay Buffer was added 200 μL of reconstituted 100× Substrate and mixed well. The reconstituted substrate as well as the assay solution (buffer+substrate) was protected from light throughout the procedure by keeping it covered with aluminum foil.
Using a multi-channel pipette, 100 μL Assay Solution (buffer+substrate) was added directly to each sample well in Plate 1, which was incubated for 30 min (plate was covered with aluminum foil). After 30 min incubation, the plate was read for total luminescence. Each well was read for 2 seconds in a plate luminometer. (Microplate reader Envision Microplate reader from Perkin Elmer). Precaution was taken to incubate plate exactly for 30 min prior to reading on the plate reader.
Materials: SREBPv1 Reporter cell line: HepG2—#32251. Growth Medium: MEM (Corning 10-010), 10% FBS, 1% GlutaMax (Invitrogen Catalog #35050061), […] (Invitrogen Catalog #A1113803) and 1% Penicillin-Streptomycin (Pen-Strep). Treatment Media: Phenol-free MEM (Invitrogen Catalog #51200-038) and 1% GlutaMax (Invitrogen Catalog #35050061). Luciferase Assay: LightSwitch Luciferase Assay Kit (Catalog #32032). LDH assay: Pierce LDH Cytotoxicity Assay Kit (Catalog #SD249616).
(In general: Reporter assays use an easily measured gene product as a stand-in for the process of interest.)
As for `CC(C)(C)c1cc(-c2cc(-c3ccc(C(=O)N4CCC(O)CC4)cc3Cl)ccn2)ccn1` [Compound 1, (4-(2′-(tert-butyl)-[2,4′-bipyridin]-4-yl)-3-chlorophenyl)(4-hydroxypiperidin-1-yl)methanone], the IC50 (in general, the midpoint of a concentration-inhibition curve) is at most 1000 nM.

Take `CC(C)(C)c1cc(-c2ccnc(-c3ccc(C(=O)N4CCC(O)CC4)cc3Cl)c2)ccn1` [Compound 2, (4-(2′-(tert-butyl)-[4,4′-bipyridin]-2-yl)-3-chlorophenyl)(4-hydroxypiperidin-1-yl)methanone]: the IC50 is at most 500 nM. Consider `CC(C)(C)c1cc(-c2cccc(-c3ccc(C(=O)N4CCC(O)CC4)cc3Cl)n2)ccn1` [Compound 3, (4-(2′-(tert-butyl)-[2,4′-bipyridin]-6-yl)-3-chlorophenyl)(4-hydroxypiperidin-1-yl)methanone], for which the IC50 is at most 1000 nM. In the case of `CC(C)(C)c1cc(-c2cncc(-c3ccc(C(=O)N4CCC(O)CC4)cc3Cl)c2)ccn1` [Compound 4, (4-(2′-(tert-butyl)-[3,4′-bipyridin]-5-yl)-3-chlorophenyl)(4-hydroxypiperidin-1-yl)methanone] it was at most 100 nM; in that of `CC(C)(C)c1cc(-c2cccc(-c3ccc(C(=O)N4CCC(O)CC4)cc3Cl)c2)ccn1` [Compound 5, (3′-(2-(tert-butyl)pyridin-4-yl)-2-chloro-[1,1′-biphenyl]-4-yl)(4-hydroxypiperidin-1-yl)methanone], at most 100 nM. Consider `CC(C)(C)c1cc(-c2ccnc(-c3ccc(C(=O)N4CCC(O)CC4)cc3Cl)n2)ccn1` [Compound 6, (4-(4-(2-(tert-butyl)pyridin-4-yl)pyrimidin-2-yl)-3-chlorophenyl)(4-hydroxypiperidin-1-yl)methanone], for which the IC50 was at most 1000 nM. For `CC(C)(C)c1cc(-c2nccc(-c3ccc(C(=O)N4CCC(O)CC4)cc3Cl)n2)ccn1` [Compound 7, (4-(2-(2-(tert-butyl)pyridin-4-yl)pyrimidin-4-yl)-3-chlorophenyl)(4-hydroxypiperidin-1-yl)methanone] the value was at most 1000 nM; for `CC(C)(C)c1cc(-c2cc(-c3ccc(C(=O)N4CCC(O)CC4)cc3Cl)ncn2)ccn1` [Compound 8, (4-(6-(2-(tert-butyl)pyridin-4-yl)pyrimidin-4-yl)-3-chlorophenyl)(4-hydroxypiperidin-1-yl)methanone], at most 1000 nM. In the case of `CC(C)(C)c1cc(-c2cncc(-c3ccc(C(=O)N4CCC(O)CC4)cc3Cl)n2)ccn1` [Compound 9, (4-(6-(2-(tert-butyl)pyridin-4-yl)pyrazin-2-yl)-3-chlorophenyl)(4-hydroxypiperidin-1-yl)methanone] it was at most 1000 nM; in that of `COc1ncc(-c2ccnc(C(C)(C)C)c2)cc1-c1ccc(C(=O)N2CCC(O)CC2)cc1Cl` [Compound 10, (4-(2′-(tert-butyl)-6-methoxy-[3,4′-bipyridin]-5-yl)-3-chlorophenyl)(4-hydroxypiperidin-1-yl)methanone], at most 3000 nM; in that of `CC(C)NC(=O)Nc1ccc(-c2cncc(-c3ccnc(C(C)(C)C)c3)c2)c(Cl)c1` [Compound 11, 1-(4-(2′-(tert-butyl)-[3,4′-bipyridin]-5-yl)-3-chlorophenyl)-3-isopropylurea], at most 1000 nM. Regarding `O=C(c1ccc(-c2cncc(-c3ccnc(C4OCCO4)c3)c2)c(Cl)c1)N1CCC(O)CC1` [Compound 12, (4-(2′-(1,3-dioxolan-2-yl)-[3,4′-bipyridin]-5-yl)-3-chlorophenyl)(4-hydroxypiperidin-1-yl)methanone], the half-inhibitory concentration (IC50) was at most 1000 nM.

In the case of `CC(C)(C)OC(=O)NC1CCCN(C(=O)c2ccc(-c3cncc(-c4ccnc(C(C)(C)C)c4)c3)c(Cl)c2)C1` (stereo not drawn) [Compound 13, tert-butyl (1-(4-(2′-(tert-butyl)-[3,4′-bipyridin]-5-yl)-3-chlorobenzoyl)piperidin-3-yl)carbamate], the IC50 is at most 500 nM.

For the compound `CC(C)(C)c1cc(-c2cncc(-c3ccc(C(=O)N4CCCC(O)C4)cc3Cl)c2)ccn1` (stereo not drawn) [Compound 14, (4-(2′-(tert-butyl)-[3,4′-bipyridin]-5-yl)-3-chlorophenyl)(3-hydroxypiperidin-1-yl)methanone], the IC50 is at most 100 nM.

`COC1CCCN(C(=O)c2ccc(-c3cncc(-c4ccnc(C(C)(C)C)c4)c3)c(Cl)c2)C1` (stereo not drawn) [Compound 15, (4-(2′-(tert-butyl)-[3,4′-bipyridin]-5-yl)-3-chlorophenyl)(3-methoxypiperidin-1-yl)methanone]: the IC50 is at most 100 nM. Consider `CC(C)OC(=O)Nc1ccc(-c2cncc(-c3ccnc(C(C)(C)C)c3)c2)c(Cl)c1` [Compound 16, isopropyl (4-(2′-(tert-butyl)-[3,4′-bipyridin]-5-yl)-3-chlorophenyl)carbamate], for which the IC50 was at most 500 nM.

In the case of `CC(C)OC(=O)Nc1ccc(-c2cncc(-c3ccnc(C4OCCO4)c3)c2)c(Cl)c1` [Compound 20, Isopropyl (4-(2′-(1,3-dioxolan-2-yl)-[3,4′-bipyridin]-5-yl)-3-chlorophenyl)carbamate], the IC50 is at most 500 nM.

With `CC1(O)CCCN(C(=O)c2ccc(-c3cncc(-c4ccnc(C(C)(C)C)c4)c3)c(Cl)c2)C1` (stereo not drawn) [Compound 22, (4-(2′-(tert-butyl)-[3,4′-bipyridin]-5-yl)-3-chlorophenyl)(3-hydroxy-3-methylpiperidin-1-yl)methanone], the IC50 is at most 500 nM.
